According to the supplement of paper PMC11061612:

Tests used:
Assay in all cases: combination Emax (second highest fraction inhibited in the dose matrix, 72 h); higher = more inhibition; extreme values may be limits of the assay
ES-2 (Ovarian Carcinoma) = system: ES-2 (Ovarian Carcinoma)
Summary of the method: (§1)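 Bliss excess equals the observed combination effect minus the expected value EA + EB − EA·EB, where EA and EB are the effects of each agent alone. Combination Emax is the second-highest inhibition within the matrix. Inhibition was scaled from CellTiter-Glo 2.0 luminescence, with 0 set by vehicle wells and 1 by blank wells, after 72 hours of two-drug dosing of cells plated in 1536-well plates.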

[1] = system: HSC-3 (Oral Cavity Carcinoma)
Summary of the method: as §1

[2] = system: LAMA-84 (Chronic Myelogenous Leukemia)
Summary of the method: as §1

[3] = system: Caov-3 (Ovarian Carcinoma)
Summary of the method: as §1

HuO-3N1 (Osteosarcoma) = system: HuO-3N1 (Osteosarcoma)
Summary of the method: as §1

[4] = system: AN3-CA (Endometrial Carcinoma)
Summary of the method: as §1

[5] = system: PANC-02-03 (Pancreatic Carcinoma)
Summary of the method: as §1

RT4 (Bladder Carcinoma) = system: RT4 (Bladder Carcinoma)
Summary of the method: as §1

[6] = system: LOUCY (T-Lymphoblastic Leukemia)
Summary of the method: as §1

[7] = system: SJRH30 (Rhabdomyosarcoma)
Summary of the method: as §1

[8] = system: NCI-H196 (Small Cell Lung Carcinoma)
Summary of the method: as §1

786-0 (Kidney Carcinoma) = system: 786-0 (Kidney Carcinoma)
Summary of the method: as §1

[9] = system: CML-T1 (Chronic Myelogenous Leukemia)
Summary of the method: as §1

[10] = system: RL95-2 (Endometrial Carcinoma)
Summary of the method: as §1

[11] = system: BALL-1 (B-Lymphoblastic Leukemia)
Summary of the method: as §1

[12] = system: PC-14 (Lung Adenocarcinoma)
Summary of the method: as §1

[13] = system: NKM-1 (Acute Myeloid Leukemia)
Summary of the method: as §1

[14] = system: OV-90 (Ovarian Carcinoma)
Summary of the method: as §1

[15] = system: RERF-LC-KJ (Lung Adenocarcinoma)
Summary of the method: as §1

[16] = system: SW684 (Other Solid Carcinomas)
Summary of the method: as §1

Row | Structure (SMILES) | combination Emax (ES-2 (Ovarian Carcinoma)) | combination Emax [1] | combination Emax [2] | combination Emax [3] | combination Emax (HuO-3N1 (Osteosarcoma)) | combination Emax [4] | combination Emax [5] | combination Emax (RT4 (Bladder Carcinoma)) | combination Emax [6] | combination Emax [7] | combination Emax [8] | combination Emax (786-0 (Kidney Carcinoma)) | combination Emax [9] | combination Emax [10] | combination Emax [11] | combination Emax [12] | combination Emax [13] | combination Emax [14] | combination Emax [15] | combination Emax [16]
1 | Cc1c2c(nn1C)CSCc1cc(n(C)n1)CSc1cc(c3ccccc3c1)OCCCc1c(C(=O)O)n(C)c3c-2c(Cl)ccc13 [AZD5991] + C1CN(CCC1(C(=O)N[C@@H](CCO)C2=CC=C(C=C2)Cl)N)C3=NC=NC4=C3C=CN4 [Capivasertib] (first compound max 1 µM, 7x7, partner max 3 µM) | 0.196 | 0.728 | 0.189 | 0.307 | 0.881 | 0.951 | 0.179 | 0.22 | 0.926 | 0.669 | 0.196 | 0.44 | 0.0638 | 1 | 0.65 | 0.26 | 0.999 | 0.241 | 0.495 | 0.402
2 | Cc1c2c(nn1C)CSCc1cc(n(C)n1)CSc1cc(c3ccccc3c1)OCCCc1c(C(=O)O)n(C)c3c-2c(Cl)ccc13 [AZD5991] + C=CCn1c(=O)c2cnc(Nc3ccc(N4CCN(C)CC4)cc3)nc2n1-c1cccc(C(C)(C)O)n1 [AZD1775] (first compound max 1 µM, partner max 1 µM) | 0.842 | 0.851 | 0.968 | 0.775 | 1 | 0.637 | 0.594 | 0.53 | 1 | 0.912 | 0.508 | 0.804 | 0.938 | 1 | 1 | 0.921 | 0.979 | 0.521 | 0.563 | 0.273
3 | Cc1c2c(nn1C)CSCc1cc(n(C)n1)CSc1cc(c3ccccc3c1)OCCCc1c(C(=O)O)n(C)c3c-2c(Cl)ccc13 [AZD5991] + CC1(C)CCC(CN2CCN(c3ccc(C(=O)NS(=O)(=O)c4ccc(NCC5CCOCC5)c([N+](=O)[O-])c4)c(Oc4cnc5[nH]ccc5c4)c3)CC2)=C(c2ccc(Cl)cc2)C1 [Venetoclax] (first compound max 1 µM, 7x7, partner max 1 µM) | 0.241 | 0.466 | 0.183 | 0.453 | 0.733 | 0.835 | 0.138 | 0.959 | 1 | 0.588 | 0.23 | 0.199 | 0.779 | 0.943 | 1 | 0.245 | 0.999 | 0.246 | 0.444 | 0.174
4 | Cc1c2c(nn1C)CSCc1cc(n(C)n1)CSc1cc(c3ccccc3c1)OCCCc1c(C(=O)O)n(C)c3c-2c(Cl)ccc13 [AZD5991] + CCN(CCO)CCCOc1ccc2c(Nc3cc(CC(=O)Nc4cccc(F)c4)[nH]n3)ncnc2c1 [AZD2811] (first compound max 1 µM, 7x7, partner max 1 µM) | 0.345 | 0.91 | 0.636 | 0.896 | 0.875 | 0.584 | 0.269 | 0.913 | 0.983 | 0.663 | 0.222 | 0.35 | 0.389 | 1 | 0.875 | 0.371 | 0.969 | 0.262 | 0.584 | 0.231
5 | Cc1c2c(nn1C)CSCc1cc(n(C)n1)CSc1cc(c3ccccc3c1)OCCCc1c(C(=O)O)n(C)c3c-2c(Cl)ccc13 [AZD5991] + CN(C)CCCOc1ccc(-c2ccc3ncc4c(c3c2)n(C2CCOCC2)c(=O)n4C)cn1 [AZD0156] (first compound max 1 µM, 7x7, partner max 1 µM) | 0.313 | 0.873 | 0.177 | 0.39 | 0.844 | 0.404 | 0.203 | 0.289 | 0.638 | 0.544 | 0.205 | 0.251 | 0.223 | 0.977 | 0.606 | 0.236 | 0.967 | 0.209 | 0.589 | 0.236
6 | Cc1c2c(nn1C)CSCc1cc(n(C)n1)CSc1cc(c3ccccc3c1)OCCCc1c(C(=O)O)n(C)c3c-2c(Cl)ccc13 [AZD5991] + C[C@@H]1COCCN1C2=NC(=NC(=C2)C3(CC3)[S@](=N)(=O)C)C4=C5C=CNC5=NC=C4 [AZD6738] (first compound max 1 µM, 7x7, partner max 10 µM) | 0.858 | 0.798 | 0.966 | 0.763 | 0.894 | 0.823 | 0.528 | 0.536 | 0.993 | 0.939 | 0.367 | 0.748 | 0.96 | 1 | 1 | 0.855 | 0.995 | 0.51 | 0.465 | 0.428
